Assay results from patent US12139478B2, “Compounds, compositions and methods” (Denali Therapeutics Inc., priority 2017, dated 2024).
Read-outs that look alike come from different tables or passages of the source.

Tested on: ATF4 translation
Test: ATF4 Nano Luciferase reporter integrated stress response (ISR) assay in H4 ATF4-NLuc cells
Assay type: cell-based, human
Conditions: Homo sapiens, 0.5 h, H4 ATF4-NLuc (clone 17) cells, compound 30 minutes, then sodium arsenite for 6 additional hours, luminescence readout
Excerpt: Cellular stress leads to activation of the integrated stress response pathway through one of four eukaryotic initiation factor 2a kinases and halts global translation, while allowing for the translation of select transcripts like ATF4 (activating transcription factor 4) that are important for the response to cellular stress. During normal conditions, small open reading frames (ORFs) in the 5′ UTR of ATF4 occupy the ribosome and prevent translation of the coding sequence of ATF4. During stress conditions however, the ribosome scans past these upstream ORFs and preferentially begins translation at the coding sequence of ATF4. In this way, the translation, and thus protein level of ATF4 is a readout of ISR pathway activation. Thus, a fusion of the uORFs and the beginning of the coding sequence of ATF to a common cellular reporter like nano-luciferase allows for a sensitive and high-throughput readout of ISR pathway activity.
Compounds as provided herein were tested in the following assay. The ATF4 Nano Luciferase reporter was constructed by fusing the human full length 5′ untranslated region (5′-UTR) and a small portion of the coding sequence of the ATF4 gene upstream of the Nano Luciferase (NLuc) coding sequence lacking it's start codon. Specifically, nucleotides +1 through +364 (relative to the transcriptional start site) of ATF4 transcript variant 2 (NCBI NM_182810.2) flanked 5′ by EcoRI and 3′ by BamHI restriction enzyme sites were synthesized and cloned into the EcoRI/BamHI cloning sites of pLVX-EF1a-IRES-Puro lentivirus vector (Clontech). Lentiviral particles were produced with Lenti-X single shots (VSV-G, Clontech) according to the manufacturer's instructions and used to transduce a human H4 neuroglioma cell line (ATCC HTB-148). H4 cells were selected with 1.25 μg/mL Puromycin, and clonal cell lines generated by limiting dilution. We utilized this cell line to generate an integrated stress response (ISR) assay to evaluate the activity of ISR pathway inhibitors via luminescence readout. The H4 ATF4-NLuc (clone 17) cell line is plated at a density of […] in 96-well or 384-well respectively in DMEM+[…]. 24-hours later test compounds diluted in dimethyl sulfoxide (DMSO) are added for 30 minutes at 37° C., followed by ISR pathway activation with […] sodium arsenite aqueous solution for 6 additional hours. Nano Glo luciferase reagent (N1150, Promega) is added according to manufacturer instructions and the luminescence signal (corresponding to the level of ATF4 translation and thus ISR pathway activation) is read with a standard plate reader with luminescence detection capabilities. […] In the tables below, activity of the tested compounds is provided, and in Table 3 as follows: […]; ++=IC50 1-10 μM; +=IC50>10 μM.

[1] = read-out: Biological Example 1 (ATF4 translation, IC50 nM)

IC50 (read-out: Activity) | IC50 [1] | SMILES
< 1000 nM |  | O=C(COc1ccc(F)cc1)N[C@H]1CO[C@H](c2nnc([C@H]3C[C@@H](OC(F)(F)F)C3)o2)C2CC21 (stereo partly drawn) [Example 32, 2-(4-fluorophenoxy)-N-((2S,5R)-2-(5-(3-cis-(trifluoromethoxy)cyclobutyl)-1,3,4-oxadiazol-2-yl)-3-oxabicyclo[4.1.0]heptan-5-yl)acetamide]
< 1000 nM | 421 nM | COC1C[C@@H](c2nnc([C@H]3C[C@@H](OC(F)(F)F)C3)o2)OC[C@@H]1NC(=O)COc1ccc(F)cc1 (stereo partly drawn) [Example 33, 2-(4-fluorophenoxy)-N-((3S,6S)-4-methoxy-6-(5-(3-cis-(trifluoromethoxy)cyclobutyl)-1,3,4-oxadiazol-2-yl)tetrahydro-2H-pyran-3-yl)acetamide]
< 1000 nM |  | O=C(COc1ccc(F)cc1F)NC12CCC(c3nnc([C@H]4C[C@@H](OC(F)(F)F)C4)o3)(CC1)OC2 [Example 34, 2-(2,4-difluorophenoxy)-N-[1-[5-[3-cis-(trifluoromethoxy)cyclobutyl]-1,3,4-oxadiazol-2-yl]-2-oxabicyclo[2.2.2]octan-4-yl]acetamide]
< 1000 nM |  | O=C(COc1ccc(F)cc1)N[C@H]1CO[C@H](c2nnc([C@H]3C[C@@H](OC(F)(F)F)C3)o2)CC1(F)F [Example 35, N-[(3S,6S)-4,4-difluoro-6-[5-[3-cis-(trifluoromethoxy)cyclobutyl]-1,3,4-oxadiazol-2-yl]tetrahydropyran-3-yl]-2-(4-fluorophenoxy)acetamide]
< 1000 nM |  | CO[C@H]1C[C@@H](NC(=O)COc2ccc(F)cc2)CO[C@@H]1c1nnc([C@H]2C[C@@H](OC(F)(F)F)C2)o1 [Example 36, 2-(4-fluorophenoxy)-N-((3R,5S,6S)-5-methoxy-6-(5-(3-cis-(trifluoromethoxy)cyclobutyl)-1,3,4-oxadiazol-2-yl)tetrahydro-2H-pyran-3-yl)acetamide]
< 1000 nM |  | O=C(COc1ccc(F)cc1F)N[C@@H]1CC[C@@H](c2nnc([C@H]3C[C@@H](OC(F)(F)F)C3)o2)OC1 [Example 37, 2-(2,4-difluorophenoxy)-N-[(3R,6S)-6-[5-[3-cis-(trifluoromethoxy)cyclobutyl]-1,3,4-oxadiazol-2-yl]tetrahydropyran-3-yl]acetamide]
< 1000 nM |  | O=C(COc1ccc(F)cc1)N[C@@H]1CC[C@@H](c2nc(C3CC(OC(F)(F)F)C3)no2)OC1 (stereo partly shown) [Example 38]
< 1000 nM | 36 nM | O=C(COc1ccc(C(F)(F)F)nc1)N[C@@H]1CC[C@@H](c2nnc([C@H]3C[C@@H](OC(F)(F)F)C3)o2)OC1 [Example 39, N-[(3R,6S)-6-[5-[3-cis-(trifluoromethoxy)cyclobutyl]-1,3,4-oxadiazol-2-yl]tetrahydropyran-3-yl]-2-[[6-(trifluoromethyl)-3-pyridyl]oxy]acetamide]
< 1000 nM | 2.4 nM | O=C(COc1ccc(C(F)(F)F)cc1)N[C@@H]1CC[C@@H](c2nnc([C@H]3C[C@@H](OC(F)(F)F)C3)o2)OC1 [Example 40, N-[(3R,6S)-6-[5-[3-cis-(trifluoromethoxy)cyclobutyl]-1,3,4-oxadiazol-2-yl]tetrahydropyran-3-yl]-2-[4-(trifluoromethyl)phenoxy]acetamide]
< 1000 nM | 13.5 nM | O=C(COc1ccc(Cl)cc1)N[C@H]1CO[C@H](c2nnc([C@H]3C[C@@H](OC(F)(F)F)C3)o2)CC1(F)F [Example 41, N-[(3S,6S)-4,4-difluoro-6-[5-[3-cis-(trifluoromethoxy)cyclobutyl]-1,3,4-oxadiazol-2-yl]tetrahydropyran-3-yl]-2-(4-chlorophenoxy)acetamide]
< 1000 nM |  | O=C(N[C@@H]1CC[C@@H](c2nnc(C3CC(OC(F)(F)F)C3)o2)OC1)c1cn2ccc(Br)cc2n1 (stereo partly drawn) [Example 42, 7-bromo-N-((3R,6S)-6-(5-(3-cis-(trifluoromethoxy)cyclobutyl)-1,3,4-oxadiazol-2-yl)tetrahydro-2H-pyran-3-yl)imidazo[1,2-a]pyridine-2-carboxamide]
< 1000 nM |  | O=C(N[C@@H]1CC[C@@H](c2nnc(C3CC(OC(F)(F)F)C3)o2)OC1)c1nc2cc(Cl)ccc2s1 (stereo partly drawn) [Example 43, 5-chloro-N-((3R,6S)-6-(5-(3-cis-(trifluoromethoxy)cyclobutyl)-1,3,4-oxadiazol-2-yl)tetrahydro-2H-pyran-3-yl)benzo[d]thiazole-2-carboxamide]
< 1000 nM |  | O=C(N[C@@H]1CC[C@@H](c2nnc(C3CC(OC(F)(F)F)C3)o2)OC1)c1cc2ccc(Cl)cc2cn1 (stereo partly drawn) [Example 44, 7-chloro-N-((3R,6S)-6-(5-(3-cis-(trifluoromethoxy)cyclobutyl)-1,3,4-oxadiazol-2-yl)tetrahydro-2H-pyran-3-yl)isoquinoline-3-carboxamide]
< 1000 nM |  | O=C(N[C@@H]1CC[C@@H](c2nnc(C3CC(OC(F)(F)F)C3)o2)OC1)C1CCc2cc(Cl)ccc2O1 (stereo partly shown) [Example 45]
< 1000 nM |  | O=C(COc1ccc(Cl)cc1)N[C@@H]1CC[C@@H](C(O)COC2CC(OC(F)(F)F)C2)OC1 (stereo partly shown) [Example 46]
< 1000 nM |  | O=C(COC1CC(OC(F)(F)F)C1)NC12CCC(c3cc(-c4ccc(Cl)c(F)c4)no3)(CC1)OC2 (stereo not shown) [Example 47]
< 1000 nM |  | O=C(COC1CC(OC(F)(F)F)C1)NC12CCC(c3cnn(-c4ccc(Cl)c(F)c4)c3)(CC1)OC2 (stereo not shown) [Example 48]
> 10000 nM |  | O=C(COC1CC(OC(F)(F)F)C1)NC12CCC(C3CC(c4ccc(Cl)c(F)c4)=NO3)(CC1)OC2 (stereo not shown) [Example 49]
< 1000 nM | 38 nM | O=C(COC1CC(OC(F)(F)F)C1)N[C@@H]1CC[C@@H](c2cc(-c3ccc(Cl)c(F)c3)no2)OC1 (stereo partly shown) [Example 50]
< 1000 nM |  | O=C(N[C@@H]1CC[C@@H](c2nnc(C3CC(OC(F)(F)F)C3)o2)OC1)N1CCC(OC(F)(F)F)C1 (stereo partly shown) [Example 51]
< 1000 nM | 43 nM | O=C(COC1CC(OC(F)(F)F)C1)N[C@@H]1CC[C@@H](c2ccn(-c3ccc(Cl)cc3)n2)OC1 (stereo partly shown) [Example 52]
< 1000 nM |  | O=C(COc1ccc(F)cc1)N[C@@H]1CC[C@@H](c2noc(C3CC(OC(F)(F)F)C3)n2)OC1 (stereo partly shown) [Example 53]
< 1000 nM |  | O=C(COC1CC(OC(F)(F)F)C1)N[C@@H]1CC[C@@H](c2cc(-c3ccc(Cl)cc3)no2)OC1 (stereo partly shown) [Example 54]
 | 22.7 nM | O=C(COc1ccc(Cl)c(F)c1)N[C@@H]1CC[C@@H](c2nnc(COC(F)(F)F)o2)OC1 [Example 55]
< 1000 nM |  | O=C(N[C@@H]1CC[C@@H](c2nnc(C3CC(OC(F)(F)F)C3)o2)OC1)c1ccc2cc(Cl)ccc2n1 (stereo partly drawn) [Example 56, 6-chloro-N-[(3R,6S)-6-[5-[3-cis-(trifluoromethoxy)cyclobutyl]-1,3,4-oxadiazol-2-yl]tetrahydropyran-3-yl]quinoline-2-carboxamide]
< 1000 nM |  | O=C(N[C@@H]1CC[C@@H](c2nnc(C3CC(OC(F)(F)F)C3)o2)OC1)c1ccc2cc(F)ccc2n1 (stereo partly drawn) [Example 57, 6-fluoro-N-((3R,6S)-6-(5-(3-cis-(trifluoromethoxy)cyclobutyl)-1,3,4-oxadiazol-2-yl)tetrahydro-2H-pyran-3-yl)quinoline-2-carboxamide]
< 1000 nM | 3.7 nM | O=C(COc1ccc(Cl)c(F)c1)N[C@@H]1CC[C@@H](c2nc([C@H]3C[C@@H](OC(F)(F)F)C3)no2)OC1 [Example 58, 2-(4-chloro-3-fluorophenoxy)-N-((3R,6S)-6-(3-(3-cis-(trifluoromethoxy)cyclobutyl)-1,2,4-oxadiazol-5-yl)tetrahydro-2H-pyran-3-yl)acetamide]
